The conditions of series [1]: alcohols, acetone, ethyl acetate, toluene, diethyl ether, dioxane, hexane and n-heptane.
For series [2] the following is noted: low levels of volatiles (water and residual solvents) by KF and TGA.

For the molecule `C#CCN[C@@H]1CCc2ccccc21` [rasagiline base, R(+)-N-propargyl-1-aminoindan], the “solubility in polar and non-polar organic solvents” value in series [1] was “freely soluble”. Moreover, the hygroscopicity entry in series [2] is “not hygroscopic”.

For the origin of these results see patent US8334409B2, “Process for purifying rasagiline base” (Teva Pharmaceutical Industries, Ltd., priority 2008, dated 2012).
